Reference: patent US20240352409A1, “CELL SEEDING AGENT AND SUBSTRATE FOR CELL TRANSPLANTATION USE” (CELLUSION INC., priority 2021, published 2024)
“Also recorded” adds a separate entry of the source.

Tests used:
[1] = tested on: iPS cell-derived corneal endothelial substitute cells; assay: Influence of ROCK inhibitor on tight junction formation (ZO-1 expression) during passage operation in differentiation induction; assay type: cell-based; settings: 10 μM Y-27632 during passage operation; FIG. 1
Method: An influence of a ROCK inhibitor during the passage operation in the differentiation induction step of iPS cell-derived corneal endothelial substitute cells was investigated. According to Example 1 and Experimental Example 2 of Patent Literature 3 (10 μM Y-27632 was used as ROCK inhibitor instead of fasudil), the expression of ZO-1 was investigated.

[2] = tested on: iPS cells (FF-101s04 strain); assay: Engraftment of iPS cells seeded in phenolphthalein derivative-added cell seeding agents (differentiation induction, fixed or changed seeding density); assay type: cell-based; settings: derivative 0.22 mM, day 7; for cell engraftment at specified seeding density: seeded at 1.04×10^4 cells/cm^2; for cell engraftment at seeding number lower than specified density: seeding density lower than 1.04×10^4 cells/cm^2
Method: T12.5 flask (Corning Incorporated/353107) was coated with iMatrix511 (MATRIXOME, Inc./892005) at a concentration of 6 μg/mL. iPS cells (FF-101s04 strain) were suspended in AK03N+Y medium at a density of 8.0×10^3 cells/cm^2, and were seeded into the T12.5 flask. Culture was started in a CO2 incubator at 37° C., and the medium was replaced the next day with AK03N medium not containing Y-27632. After a gap of 2 days, medium exchange was performed for 2 consecutive days, and passage was performed on the 6th day of culture.
A T25 flask (Sumitomo Bakelite Co., Ltd./MS-23050) was coated with iMatrix511 (MATRIXOME, Inc./892005) at a concentration of 6 μg/mL. iPS cells were suspended in AK03N+Y medium at a density of 2.2×10^3 cells/cm^2, and were seeded into the T25 flask. Culture was started in a CO2 incubator at 37° C., and the medium was replaced the next day with AK03N medium not containing Y-27632. After a gap of 2 days, medium exchange was performed for 2 consecutive days, and passage was performed on the 6th day of culture.
DMEM/F12 non phenol red (Thermo Fisher Scientific, Inc./11039-021) was used as the basal medium, and a phenol red-free corneal endothelial substitute cell induction medium was prepared (hereinafter also to be referred to as phenol red-free medium in this Example). To the basal medium (500 mL) were added, as additives, ITS-Supplement (Ventria/777ITS091), IGF1 (OrphanPacific, Inc.; Somazone for injection/858100075, 1 mg/mL), LIF (FUJIFILM Wako Pure Chemical Corporation/125-06661), IL-6 (Miltenyi Biotec/170-076-161), IL-11 (Pepro tech/AF-200-11), TNFα (Miltenyi Biotec/170-076-178), and water-soluble HYDROCORTONE Injection (Nichi-Iko Pharmaceutical Co., Ltd./27126333) described in the following Table 1.
The phenolphthalein derivatives shown in the following Table 2, B to D, were dissolved in advance in ethanol to a concentration of 6.6×10^−6 mol/mL. 30 mL each of the phenol red-free corneal endothelial substitute cell induction medium prepared in the above-mentioned 2. was dispensed into four 50 mL tubes, and 40.5 μL of A phenolsulfonphthalein injection 0.6% (AFP) was added to one of the four tubes. Furthermore, 100 μL of B cresol red solution with adjusted concentration was added to one of the remaining three tubes. Similarly, C thymol blue solution and D bromocresol purple solution were respectively added to the remaining two tubes. A total of four different phenolphthalein derivative-containing media were prepared and used as phenolphthalein derivative-added cell seeding agents. Each seeding agent was adjusted to have a phenolphthalein derivative concentration of 0.22 mM. […]

[3] = tested on: iPS cell-derived corneal endothelial substitute cells; assay: Influence of phenol red in cell seeding agent on engraftment, recovered cell number and survival rate in differentiation induction step; assay type: cell-based; settings: with vs without phenol red
Method: When induction into corneal endothelial substitute cell was started, iPS cells recovered using TrypLE-Select (Thermo Fisher Scientific) were suspended in a phenol red-added cell seeding agent or phenol red no-addition cell seeding agent. A 100 mm culture dish (Sumitomo Bakelite Co., Ltd.) was coated with iMatrix 511 at a concentration of 3 μg/ml, and iPS cells suspended in each cell seeding agent were seeded at a density of 1.0×10^4 cells/cm^2. Culture was started in a CO2 incubator at 37° C., and thereafter, the medium was replaced with phenol red-added corneal endothelial substitute cell induction medium or phenol red no-addition corneal endothelial substitute cell induction medium at a frequency of once every 2 to 3 days thereafter. Culture was performed for 14 days under the above-mentioned conditions in each medium for inducing corneal endothelial substitute cells. After 3, 5, and 7 days of culture, the state of the cells was confirmed under a microscope (FIG. 2A). After culturing for 14 days, for the groups in which cell engraftment was observed under a microscope, the cells were collected and the number of cells was counted. The cells were collected after removing the culture supernatant, washed twice using DPBS (−) (Thermo Fisher Scientific), detached using Accutase (Innovative Cell Technologies), and collected into a centrifuge tube. The cells collected into the centrifuge tube were separated by centrifugation, and after adjusting the cell concentration using a medium and the like, the cell concentration and survival rate were measured using an automatic cell counter (ChemoMetec) (FIG. 2B).

[4] = tested on: Macaca fascicularis bullous keratopathy model; assay: Transplantation of corneal endothelial substitute cell suspension into anterior chamber of bullous keratopathy model; assay type: in vivo
Method: A cell suspension of iPS cell-derived corneal endothelial substitute cells (8×10^5 cells/160 μl) obtained in Example 1 was transplanted to the anterior chamber of a Macaca fascicularis bullous keratopathy model (conducted by SHIN NIPPON BIOMEDICAL LABORATORIES, LTD.). Two types of substrates for transplantation (containing insulin, insulin-like growth factor, and the like) were prepared: one with and one without the addition of phenol red. The corneal endothelial substitute cell suspension was transplanted into the anterior chamber of the eye by the following procedure. • (1) Corneal endothelial substitute cells suspended in two types of substrates for transplantation, with and without phenol red added, were injected into the anterior chamber using a 27-gauge syringe. • (2) Macaca fascicularis was placed face down for 3 hr. • (3) After 28 days of observation, the eyeballs were collected and observed macroscopically and microscopically. Formation of a corneal endothelial substitute cell layer and corneal thickness were measured for the transplanted eye. Corneal thickness was measured using a corneal thickness measuring device (Tomey Corporation; SP-100).

Compound: C[C@@H](N)[C@H]1CC[C@H](C(=O)Nc2ccncc2)CC1 [Y-27632]
- cell transformation (epithelial-to-mesenchymal transition) [1]: causes transformation that appears to be epithelial-to-mesenchymal transition
- formation of tight junction (expression of ZO-1) [1]: formation of tight junction was inhibited; also recorded: inhibits the formation of tight junction

Compound: Cc1cc(C2(c3cc(C)c(O)c(Br)c3)OS(=O)(=O)c3ccccc32)cc(Br)c1O [bromocresol purple]
- cell engraftment at specified seeding density [2]: Engraftment was also confirmed

Compound: Cc1cc(C2(c3ccc(O)c(C)c3)OS(=O)(=O)c3ccccc32)ccc1O [cresol red]
- cell engraftment at seeding number lower than specified density [2]: cell engraftment was confirmed

Compound: O=S1(=O)OC(c2ccc(O)cc2)(c2ccc(O)cc2)c2ccccc21 [phenol red, phenolsulfonphthalein]
- engraftment of cells after seeding (microscope) ([3]; 3rd, 5th, 7th day of culture, seeded at 1.0×10^4 cells/cm^2, FIG. 2A): Engraftment was clearly better
- number of recovered viable cells ([3]; day 14 of culture, FIG. 2B): clearly superior
- survival rate ([3]; day 14 of culture, FIG. 2B): clearly superior
- cell engraftment at seeding number lower than specified density [2]: cell engraftment was confirmed
- engraftment and distribution of transplanted cells on posterior cornea ([4]; 8×10^5 cells/160 μl into anterior chamber, substrate with phenol red, 28 days observation, FIG. 4): engrafted on the posterior cornea and spread uniformly
- corneal thickness ([4]; substrate for transplantation with phenol red, FIG. 3): a decrease in corneal thickness was observed; also recorded: corneal thickness decreased
- corneal edema ([4]; substrate for transplantation with phenol red, judged from corneal thickness, FIG. 3): corneal edema was improved; also recorded: corneal edema-improving effect was observed

Compound: Cc1cc(O)c(C(C)C)cc1C1(c2cc(C(C)C)c(O)cc2C)OS(=O)(=O)c2ccccc21 [thymol blue]
- cell engraftment at specified seeding density [2]: Engraftment was also confirmed
